From ChEMBL document CHEMBL6074667, “Discovery and Optimization of First-in-Class Molecular Glue Degraders of the WIZ Transcription Factor for Fetal Hemoglobin Induction to Treat Sickle Cell Disease” (J Med Chem, 2024)
In brackets after ≈: the same amount, converted by molar mass.

How the values were obtained:
[1] = biological target: T1, Protein cereblon/Protein Wiz (Homo sapiens, UniProt Q96SW2+O95785); experiment: Molecular glue activity at CRBN/HiBiT-tagged WIZ (unknown origin) expressed in HEK293T cells assessed as induction of WIZ degradation incubated for 18 hrs by Nano-Glo HiBiT-Lytic reagent based luminescence plate reader analysis relative to control; assay type: cell-based; design: concentration or dose not given beside the values
[2] = biological target: T2, Protein cereblon/Sal-like protein 4 (Homo sapiens, UniProt Q96SW2+Q9UJQ4); experiment: Molecular glue activity at CRBN/HiBiT-tagged SALL4 (unknown origin) expressed in human GripTite 293 MSR cells assessed as induction of SALL4 degradation incubated for 20 hrs by Nano-Glo HiBiT-Lytic reagent based luminescence plate reader analysis relative to control; assay type: cell-based; design: concentration or dose not given beside the values
Target sequence in this assay (Q96SW2 whole entry, looked up): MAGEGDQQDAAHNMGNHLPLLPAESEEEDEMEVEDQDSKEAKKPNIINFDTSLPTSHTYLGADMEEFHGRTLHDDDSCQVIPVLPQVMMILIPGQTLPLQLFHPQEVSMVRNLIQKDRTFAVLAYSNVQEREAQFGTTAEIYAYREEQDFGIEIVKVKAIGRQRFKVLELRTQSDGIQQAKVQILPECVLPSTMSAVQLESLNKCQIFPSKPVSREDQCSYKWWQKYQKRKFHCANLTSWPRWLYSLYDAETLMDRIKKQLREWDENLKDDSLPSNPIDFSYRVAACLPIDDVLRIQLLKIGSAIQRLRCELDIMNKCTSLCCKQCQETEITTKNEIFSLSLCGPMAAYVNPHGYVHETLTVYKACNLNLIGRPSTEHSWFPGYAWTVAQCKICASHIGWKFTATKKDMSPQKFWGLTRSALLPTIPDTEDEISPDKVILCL
Target sequence in this assay (Q9UJQ4 whole entry, looked up): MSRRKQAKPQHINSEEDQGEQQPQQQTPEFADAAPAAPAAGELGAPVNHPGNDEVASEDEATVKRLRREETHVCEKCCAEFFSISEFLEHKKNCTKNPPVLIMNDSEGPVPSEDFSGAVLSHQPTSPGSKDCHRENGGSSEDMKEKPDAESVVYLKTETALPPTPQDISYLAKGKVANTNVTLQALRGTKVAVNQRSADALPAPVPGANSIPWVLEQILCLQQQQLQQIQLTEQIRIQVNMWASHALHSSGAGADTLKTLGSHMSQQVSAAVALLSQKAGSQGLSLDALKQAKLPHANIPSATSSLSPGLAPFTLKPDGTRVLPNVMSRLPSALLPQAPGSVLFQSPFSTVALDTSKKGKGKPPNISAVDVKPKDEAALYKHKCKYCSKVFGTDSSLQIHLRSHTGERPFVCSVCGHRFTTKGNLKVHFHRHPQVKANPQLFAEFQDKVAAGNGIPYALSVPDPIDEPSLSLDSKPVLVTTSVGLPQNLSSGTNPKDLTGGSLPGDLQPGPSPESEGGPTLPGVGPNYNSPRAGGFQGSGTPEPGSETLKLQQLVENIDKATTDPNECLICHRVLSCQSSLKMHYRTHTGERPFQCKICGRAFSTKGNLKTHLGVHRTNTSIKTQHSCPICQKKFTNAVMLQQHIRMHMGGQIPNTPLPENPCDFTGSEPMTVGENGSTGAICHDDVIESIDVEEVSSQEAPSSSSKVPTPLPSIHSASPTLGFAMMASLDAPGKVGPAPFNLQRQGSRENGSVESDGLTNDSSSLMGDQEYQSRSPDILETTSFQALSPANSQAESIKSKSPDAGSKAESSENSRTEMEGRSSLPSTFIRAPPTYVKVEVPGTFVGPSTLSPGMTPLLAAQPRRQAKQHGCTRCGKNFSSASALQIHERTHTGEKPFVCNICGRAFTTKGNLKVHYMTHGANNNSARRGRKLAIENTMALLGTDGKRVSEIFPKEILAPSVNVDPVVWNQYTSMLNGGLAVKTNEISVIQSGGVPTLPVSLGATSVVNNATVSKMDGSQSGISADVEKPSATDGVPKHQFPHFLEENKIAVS

Cereblon/Ikaros [3] = biological target: T3, Cereblon/Ikaros (Homo sapiens, UniProt Q96SW2+Q13422); experiment: Molecular glue activity at CRBN/HiBiT-tagged IKZF1 (unknown origin) expressed in human GripTite 293 MSR cells assessed as induction of […] incubated for 20 hrs by Nano-Glo HiBiT-Lytic reagent based luminescence plate reader analysis relative to control; assay type: cell-based; design: concentration or dose not given beside the values
[4] = biological target: T4, Protein cereblon/Eukaryotic peptide chain release factor GTP-binding subunit ERF3A (Homo sapiens, UniProt Q96SW2+P15170); experiment: Molecular glue activity at CRBN/HiBiT-tagged GSPT1 (unknown origin) expressed in human GripTite 293 MSR cells assessed as induction of GSPT1 degradation incubated for 20 hrs by Nano-Glo HiBiT-Lytic reagent based luminescence plate reader analysis relative to control; assay type: cell-based; design: concentration or dose not given beside the values
[5] = biological target: T1, Protein cereblon/Protein Wiz; experiment: Molecular glue activity at CRBN/HiBiT-tagged WIZ (unknown origin) expressed in HEK293T cells assessed as induction of WIZ degradation incubated for 18 hrs by Nano-Glo HiBiT-Lytic reagent based luminescence plate reader analysis; assay type: cell-based
[6] = biological target: T2, Protein cereblon/Sal-like protein 4; experiment: Molecular glue activity at CRBN/HiBiT-tagged SALL4 (unknown origin) expressed in human GripTite 293 MSR cells assessed as induction of SALL4 degradation incubated for 20 hrs by Nano-Glo HiBiT-Lytic reagent based luminescence plate reader analysis; assay type: cell-based
Target sequence in this assay (Q96SW2 whole entry): as the sequence (Q96SW2 whole entry, looked up) above
Target sequence in this assay (Q9UJQ4 whole entry): as the sequence (Q9UJQ4 whole entry, looked up) above

Cereblon/Ikaros [7] = biological target: T3, Cereblon/Ikaros; experiment: Molecular glue activity at CRBN/HiBiT-tagged IKZF1 (unknown origin) expressed in human GripTite 293 MSR cells assessed as induction of […] incubated for 20 hrs by Nano-Glo HiBiT-Lytic reagent based luminescence plate reader analysis; assay type: cell-based
[8] = biological target: T4, Protein cereblon/Eukaryotic peptide chain release factor GTP-binding subunit ERF3A; experiment: Molecular glue activity at CRBN/HiBiT-tagged GSPT1 (unknown origin) expressed in human GripTite 293 MSR cells assessed as induction of GSPT1 degradation incubated for 20 hrs by Nano-Glo HiBiT-Lytic reagent based luminescence plate reader analysis; assay type: cell-based
Target sequence in this assay (Q96SW2 whole entry): as the sequence (Q96SW2 whole entry, looked up) above
Target sequence in this assay (P15170 whole entry): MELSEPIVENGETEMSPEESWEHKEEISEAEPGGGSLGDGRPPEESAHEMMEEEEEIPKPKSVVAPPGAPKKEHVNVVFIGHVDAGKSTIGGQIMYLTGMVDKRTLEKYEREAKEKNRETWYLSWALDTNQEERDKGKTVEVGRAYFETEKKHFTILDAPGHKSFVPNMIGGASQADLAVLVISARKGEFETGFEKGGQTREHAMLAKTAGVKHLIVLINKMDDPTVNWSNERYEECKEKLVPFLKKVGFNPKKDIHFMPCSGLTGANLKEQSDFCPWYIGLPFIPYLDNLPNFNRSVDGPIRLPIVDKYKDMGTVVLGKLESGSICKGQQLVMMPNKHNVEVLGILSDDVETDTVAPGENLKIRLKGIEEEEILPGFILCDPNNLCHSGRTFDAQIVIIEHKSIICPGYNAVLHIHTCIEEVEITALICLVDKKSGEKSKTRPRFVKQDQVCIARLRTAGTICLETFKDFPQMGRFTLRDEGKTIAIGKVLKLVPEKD

[9] = Solubility of compound in potassium phosphate buffer at pH 6.8 incubated for 16 to 24 hrs by high-throughput Agilent Rapidfire-MS/MS analysis; assay type: physicochemical; conditions: time 16-24 hrs
[10] = Apparent permeability across apical to basolateral side in low efflux MDCK cells at 10 uM incubated for 2 hrs by LC-MS analysis; assay type: ADME, cell-based, Canis lupus familiaris; conditions: dog
[11] = Apparent permeability across apical to basolateral side in low efflux MDCK cells assessed as drug recovery at 10 uM incubated for 2 hrs by LC-MS analysis; assay type: ADME, cell-based, Canis lupus familiaris; conditions: dog, read-out: Drug recovery
[12] = Intrinsic clearance in mouse liver microsomes; assay type: ADME, Microsome; conditions: read-out: CLH
[13] = Intrinsic clearance in rat liver microsomes; assay type: ADME, Microsome; conditions: read-out: CLH
[14] = Intrinsic clearance in human liver microsomes; assay type: ADME, Microsome; conditions: read-out: CLH
[15] = Protein binding in mouse plasma; assay type: ADME, cell-free; conditions: read-out: PPB (converted)
[16] = Protein binding in rat plasma; assay type: ADME, cell-free; conditions: read-out: PPB (converted)
[17] = Protein binding in human plasma; assay type: ADME, cell-free; conditions: read-out: PPB (converted)
[18] = Half-life in C57BL/6 mouse at 1 mg/kg, iv; assay type: ADME, organism-based; conditions: in vivo
[19] = Clearance in C57BL/6 mouse at 1 mg/kg, iv; assay type: ADME, organism-based; conditions: in vivo
[20] = Volume of distribution at steady state in C57BL/6 mouse at 1 mg/kg, iv; assay type: ADME, organism-based; conditions: in vivo, read-out: Vdss
[21] = AUClast in C57BL/6 mouse at 3 mg/kg, po; assay type: ADME, organism-based; conditions: in vivo
[22] = Cmax in C57BL/6 mouse at 3 mg/kg, po; assay type: ADME, organism-based; conditions: in vivo
[23] = Tmax in C57BL/6 mouse at 3 mg/kg, po or 1 mg/kg, iv; assay type: ADME, organism-based; conditions: in vivo
[24] = Bioavailability last in C57BL/6 mouse; assay type: ADME, organism-based; conditions: in vivo
[25] = biological target: T1, Protein cereblon/Protein Wiz; experiment: Molecular glue activity at CRBN/WIZ in human CD34-positive derived primary erythroblast cells assessed as induction of WIZ degradation measured after 24 hrs by flow cytometric analysis; assay type: cell-based
[26] = biological target: Protein cereblon/Protein Wiz (Homo sapiens, UniProt O95785+Q96SW2); experiment: Molecular glue activity at CRBN/WIZ in human CD34-positive derived primary erythroblast cells assessed as increase in fetal hemoglobin positive cells in CD71+ CD235a+ subpopulation measured after 7 days by flow cytometric analysis; assay type: cell-based
[27] = Toxicity in immunocompromised naive NBSGW mouse xenografted with human CD34 positive HSPC cells assessed as effect on body weight at 0.01 to 1 mg/kg, po administered once daily for 21 days; assay type: organism-based; conditions: in vivo, 504 h, dose 0.01-1 mg/kg, time 21 day
[28] = biological target: T1, Protein cereblon/Protein Wiz; experiment: Molecular glue activity at CRBN/WIZ in human CD34-positive derived primary erythroblast cells assessed as induction of WIZ degradation by measuring maximal efficacy measured after 24 hrs by flow cytometric analysis relative to control; assay type: cell-based
[29] = biological target: T1, Protein cereblon/Protein Wiz; experiment: Molecular glue activity at CRBN/WIZ in human CD34-positive derived primary erythroblast cells assessed as increase in fetal hemoglobin positive cells in CD71+ CD235a+ subpopulation measured after 7 days by flow cytometric analysis relative to control; assay type: cell-based; conditions: time 7.0 day

T3 sequence (Q96SW2 whole entry): as the sequence (Q96SW2 whole entry, looked up) above
T3 sequence (Q13422 whole entry): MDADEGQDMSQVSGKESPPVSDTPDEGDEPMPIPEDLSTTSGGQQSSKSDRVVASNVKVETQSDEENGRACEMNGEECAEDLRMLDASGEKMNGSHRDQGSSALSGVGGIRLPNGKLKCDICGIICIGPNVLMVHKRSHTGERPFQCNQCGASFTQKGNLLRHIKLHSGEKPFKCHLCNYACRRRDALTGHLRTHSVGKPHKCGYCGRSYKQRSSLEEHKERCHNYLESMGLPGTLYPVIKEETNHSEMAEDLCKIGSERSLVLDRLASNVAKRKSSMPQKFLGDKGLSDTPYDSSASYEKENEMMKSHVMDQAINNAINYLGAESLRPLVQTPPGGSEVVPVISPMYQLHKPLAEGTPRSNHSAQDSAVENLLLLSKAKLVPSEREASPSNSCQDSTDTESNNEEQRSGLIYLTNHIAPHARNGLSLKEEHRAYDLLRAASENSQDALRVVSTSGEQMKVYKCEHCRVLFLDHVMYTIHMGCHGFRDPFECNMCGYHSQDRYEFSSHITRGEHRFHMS

| DC50 [5] [µM] | SMILES | Activity [1] [%] | Activity [2] [%] | Activity (Cereblon/Ikaros [3]) [%] | Activity [4] [%] | DC50 [6] [µM] | DC50 (Cereblon/Ikaros [7]) [µM] | DC50 [8] [µM] | solubility [9] [µM] | Papp A→B at 2 h, 10 µM [10] [nm/s] | recovery at 2 h, 10 µM [11] [%] | microsomal CLint [12] [µL/min/mg] | microsomal CLint [13] [µL/min/mg] | microsomal CLint [14] [µL/min/mg] | fraction unbound [15] | fraction unbound [16] | fraction unbound [17] | half-life [18] [h] | clearance [19] [L/h/kg] | Vd [20] [L/kg] | other results |
| --- | --- | --- | --- | --- | --- | --- | --- | --- | --- | --- | --- | --- | --- | --- | --- | --- | --- | --- | --- | --- | --- |
|  | CCN1C[C@H](C)C[C@@H](Oc2ccc3c(c2)CN(C2CCC(=O)NC2=O)C3=O)C1 (mixture of isomers) [listing 1 of 2 here] | 78 | 15 | < 10 | < 10 |  |  |  |  |  |  |  |  |  |  |  |  |  |  |  |  |
| > 25 | CCN1CCC[C@H](Oc2ccc3c(c2)CN(C2CCC(=O)NC2=O)C3=O)C1 (some centres not stated) | 12 | 27 | < 10 | < 10 | > 50 | > 50 | > 50 |  |  |  |  |  |  |  |  |  |  |  |  |  |
| 0.013 | CCN1C[C@H](C)C[C@@H](Oc2ccc3c(c2)CN(C2CCC(=O)NC2=O)C3=O)C1 (mixture of isomers) [listing 2 of 2 here] |  |  |  |  | > 50 | > 50 | > 50 |  |  |  |  |  |  |  |  |  |  |  |  |  |
| 0.003 | CCN1C[C@H](C)C[C@@H](Oc2ccc3c(c2)CN(C2CCC(=O)NC2=O)C3=O)C1 (stereo in doubt; 10) |  |  |  |  |  |  |  | 380 (≈ 146 µg/mL) | 5 | 84 | < 10 | < 10 | < 10 | > 0.8 | > 0.8 | 0.76 | 2.2 | 1.74 | 2.8 | AUC(0-t) [21]: 1120 nM·h; Cmax [22]: 0.224 µM; Tmax [23]: 1.7 h; bioavailability [24]: 23%; DC50 [25]: 0.002 µM; EC50 [26]: 0.04 µM; Activity [27]: Non-toxic |

| SMILES | DC50 [5] [µM] | Activity [1] [%] | Activity [2] [%] | Activity (Cereblon/Ikaros [3]) [%] | Activity [4] [%] | DC50 [6] [µM] | DC50 (Cereblon/Ikaros [7]) [µM] | DC50 [8] [µM] | solubility [9] [µM] | Papp A→B at 2 h, 10 µM [10] [nm/s] | recovery at 2 h, 10 µM [11] [%] | microsomal CLint [12] [µL/min/mg] | microsomal CLint [13] [µL/min/mg] | microsomal CLint [14] [µL/min/mg] | fraction unbound [15] | fraction unbound [16] | fraction unbound [17] | half-life [18] [h] | clearance [19] [L/h/kg] | Vd [20] [L/kg] | other results |
| --- | --- | --- | --- | --- | --- | --- | --- | --- | --- | --- | --- | --- | --- | --- | --- | --- | --- | --- | --- | --- | --- |
| CCN1C[C@H](Oc2ccc3c(c2)CN(C2CCC(=O)NC2=O)C3=O)CC[C@H]1C (some centres not stated) | 0.105 | 60 | 27 | < 10 | < 10 | > 50 | > 50 | > 50 |  |  |  |  |  |  |  |  |  |  |  |  |  |
| CCN1C[C@H](Oc2ccc3c(c2)CN(C2CCC(=O)NC2=O)C3=O)CC[C@@H]1C (some centres not stated) | 0.003 | 88 | 32 | 10 | < 10 | > 50 | > 50 | > 50 | 480 (≈ 185 µg/mL) | 3 | 75 | < 25 | < 25 | < 25 | 0.77 | 0.71 | 0.72 | 3.2 | 1.74 | 4.4 | AUC(0-t) [21]: 377 nM·h; Cmax [22]: 0.118 µM; Tmax [23]: 1 h; bioavailability [24]: 8.5%; DC50 [25]: 0.003 µM; Emax [28]: 84%; EC50 [26]: 0.078 µM; Activity [29]: 36% |
